According to US12281225B2, “Process for preparing stable polymers containing vinylimidazole” (BASF SE, priority 2018, dated 2025):

System: Bacteria: Escherichia coli, Staphylococcus aureus, Pseudomonas aeruginosa, Pseudomonas putida, Burkholderia cepacia, Alcaligenes faecalis
Assay: Preservation test with periodic inoculation, bacteria assessment
Type: cell-based
Settings: for Start sample measurement, bact. assess., 4th inoculation: freshly formulated; for 60 d 40° C., bact. assess., 4th inoculation: sample stored 60 d at 40° C.
Experimental: Microbiological results at the start (freshly formulated, i.e. 4-week test series is started immediately) and after 60 days of storage at 40° C. (i.e. the 4-week microbial testing is started with the sample stored at 40° C. for 60 days)
The test described below is carried out in order to ascertain the preserving effect of chemical preservatives in aqueous products and systems, the principle of the described method reflecting the efficacy of chemical preservatives with respect to pot-maintenance of aqueous products/systems under conditions corresponding to the use of laundry products/consumer products by the consumer. For this purpose, the preservatives to be tested are added in those concentrations which correspond to from the literature or to the manufacturer data from the suppliers (e.g. Thor, Speyer). In said test, our orientation was toward the upper range, which, with the exception of VI-containing polymers, had always led to excellent results in the case of aqueous polymers for laundry.
A constant microorganism load is achieved by periodic inoculation of the test batches. Before the swabs of each batch made respectively immediately in parallel with the inoculation. The assessment is made on the basis of the microbial growth of the streaks.
When carrying out said tests, 25 g of the polymer to be tested are weighed in each case into a vessel with a screw cap. The preservatives to be tested are each added in separate batches according to the specified use concentrations. An unpreserved product sample was used in each case for the growth control. Two days after the addition of the preservative, the samples are infected with 0.5 ml of inoculum (2% w/w). The titer of this inoculant solution is 10^9 organisms per ml. The following microorganisms are the test organisms for the preservation test:
• Escherichia coli • Staphylococcus aureus • Pseudomonas aeruginosa • Pseudomonas putida • Burkholderia cepacia • Alcaligenes faecalis Yeast: • Candida albicans • Candida valida • Rhodotorula rura • Saccharomyces cerevisiae
The test batches are inoculated four times altogether and once a week and are streaked on an agar plate once a week; the first streaking is done immediately before the new inoculation. Microbial growth on the agar surface is assessed after a three-day incubation at 25° C. As a precaution, negative swabs are additionally observed for a further three days and reassessed. The preserving effect is effected in a semiquantitative method via the growth of the individual streaks in accordance with the assessment from − via + to +++. The preservative result is repeatedly demonstrably robust, i.e. +++− defines the microbial growth.
When assessing the results, it is assumed that a preservative can be regarded as good if there are batches under the above-described laboratory conditions for a period of four weeks without microbial invasion of the sample, and that, even after the fourth inoculation, no microbial attacks occur growth can be identified. • −−: no growth • −: slight growth, max. 100 colonies • 0: moderate growth, max. 400 colonies • +: uniform growth with individual colonies still easily identifiable • ++: strong growth; too many colonies to be counted, already some extensive growth

Structure (SMILES) | Start sample measurement, bact. assess., 4th inoculation (Polymer P1) | 60 d 40° C., bact. assess., 4th inoculation (Polymer P1) | Start sample measurement, bact. assess., 4th inoculation (Polymer P2) | 60 d 40° C., bact. assess., 4th inoculation (Polymer P2) | Start sample measurement, bact. assess., 4th inoculation (Polymer P3) | 60 d 40° C., bact. assess., 4th inoculation (Polymer P3) | 60 d 40° C., bact. assess., 4th inoculation (Polymer P4) | 60 d 40° C., bact. assess., 4th inoculation (Polymer P5 (HP56)) | 60 d 40° C., bact. assess., 4th inoculation (Polymer P6) | 60 d 40° C., bact. assess., 4th inoculation (Polymer P7) | Start sample measurement, bact. assess., 4th inoculation (Polymer P8) | 60 d 40° C., bact. assess., 4th inoculation (Polymer P8) | 60 d 40° C., bact. assess., 4th inoculation (Polymer P9) | Start sample measurement, bact. assess., 4th inoculation (Polymer P5 (HP56)) | Start sample measurement, bact. assess., 4th inoculation (Polymer P4) | Start sample measurement, bact. assess., 4th inoculation (Polymer P6) | Start sample measurement, bact. assess., 4th inoculation (Polymer P7)
O=c1[nH]sc2ccccc12 [BIT, 1,2-benzisothiazolin-3-one] | − (slight growth, max. 100 colonies) | + | − (slight growth, max. 100 colonies) | ++ | − (slight growth, max. 100 colonies) | ++ | + | ++ | + | ++ | − (slight growth, max. 100 colonies) | + | ++ |  |  |  | 
Cn1sc(Cl)cc1=O [CMIT, 5-chloro-N-methylisothiazolin-3-one] |  | 0 (moderate growth, max. 400 colonies) |  | + |  | + | + | + | + | + |  | 0 (moderate growth, max. 400 colonies) | ++ |  |  |  | 
CCCCCCCCn1sc(Cl)c(Cl)c1=O [DCOIT, dichloroctylisothiazolinone] |  | 0 (moderate growth, max. 400 colonies) |  | + |  | + | + | + | + | + |  | + | ++ |  |  |  | 
CCCCNC(=O)OCC#CI [Iodopropynyl butyl carbamate, iodopropynyl butyl carbamate] | − (slight growth, max. 100 colonies) | 0 (moderate growth, max. 400 colonies) | − (slight growth, max. 100 colonies) | + | − (slight growth, max. 100 colonies) | + | 0 (moderate growth, max. 400 colonies) | + | + | + | − (slight growth, max. 100 colonies) | + | + | − (slight growth, max. 100 colonies) |  |  | 
Cn1sccc1=O [MIT, methyl-4-isothiazolin-3-one] | − (slight growth, max. 100 colonies) | + | − (slight growth, max. 100 colonies) | + | − (slight growth, max. 100 colonies) | + | + | + | + | + | − (slight growth, max. 100 colonies) | + | + |  |  |  | 
CCCCCCCCn1sccc1=O [OIT, octylisothiazolinone] |  | + |  | + |  | ++ | ++ | ++ | ++ | ++ |  | + | ++ | − (slight growth, max. 100 colonies) | − (slight growth, max. 100 colonies) | − (slight growth, max. 100 colonies) | − (slight growth, max. 100 colonies)
CCCCCCCCCCCCCCCC[N+](C)(C)Cc1ccccc1.[Cl-] [Polymer 16-BAC, cetylalkonium chloride] |  |  |  |  |  |  | − (slight growth, max. 100 colonies) |  |  |  |  |  |  |  |  |  | 
